From patent US8563580B2, “Flavivirus inhibitors and methods for their use” (Georgetown University, priority 2008, dated 2013) come the findings set out here.

Molecules are shown by their SMILES.

Data set [1] in a line: Cytotoxicity assay (MTT), naïve BHK cells. Conditions: hamster, 18 hours incubation. It is filed as cell-based. The protocol:
(§1) Baby Hamster Kidney (BHK) and African green monkey kidney epithelial cells (Vero) were cultured in Dulbecco's Modified Eagle Medium (DMEM) (Cellgro®; Mediatech, Inc., Manassas, Va.) supplemented with 10% fetal bovine serum, MEM nonessential amino acid (Cellgro®) (5 ml/liter), and Penicillin-Streptomycin (2.5 ml/liter). Dengue 2 replicon expressing BHK cells and WNV replicon expressing Vero cells were cultured in DMEM as described above containing additionally Geneticin or G418 (Fisher Scientific®, Pittsburgh, Pa.) to maintain the selective pressure of the replicon expressing cells.
(§2) Naïve Vero cells were cultured in the presence of varying concentrations of the Compound 33, Compound 34, and Compound 35 to calculate CC50 values. In the same way, Compound 33, Compound 34, Compound 35, and Compound 36 were tested in BHK cells. Naïve BHK and Vero cells were prepared in 96-well plates as described above at various final concentrations. After 18 hours of incubation, 10 μl of MTT reagent (Chemicon; Temecula, Calif.) is added into each well. The cells were incubated for 2 hours before adding 100 μl of detergent and were read in a spectrophotometer as described in the manufacturer's protocol.

The test system of data set [2] is Dengue 2 replicon expressing BHK cells. Briefly: Replicon inhibition assay (Renilla luciferase), Dengue 2 replicon expressing BHK cells. It is filed as cell-based, Dengue virus (DENV2). Conditions: for DENV2 BHK replicon inhibition (FIG. 2): 25 μM final concentration, 24 hours, BHK cells; for EC50: Dengue virus, BHK, 24 h. The protocol: as §1
(§3) Dengue 2 replicon expressing BHK cells and WNV replicon expressing Vero cells were plated 100 μl into a black 96 well plate (Greiner Bio-One; Monroe, N.C.) with 10^5 cells/ml concentrations. After 6 hours of incubation, 1 μl of each compound diluted in DMSO to 2.5 mM was added into each well to obtain a 25 μM as the final concentration. Cells were incubated at 37° C. in a humidified CO2 (5%) chamber for 24 hours. The media was then removed and the cells are washed with PBS before adding 20 μl of lysis buffer to each well. A Renilla luciferase assay was performed with the addition of 50 μl substrate (Promega Corporation; Madison, Wis.) with a 2 second delay and a 10 second measurement in a Centro LB 960 plate luminescence plate reader (Berthold Technologies; Oak Ridge, Tenn.). The data was analyzed and plotted with GraphPad Prism 5 (GraphPad Software, Inc.; La Jolla, Calif.).
Renilla luciferase activity was measured as described above 24 hours after the addition of the compounds.
Background: Replicon systems follow genome replication, usually without infectious particles.

Data set [3] has as its system WNV replicon expressing Vero cells. The data set can be described thus: Replicon inhibition assay (Renilla luciferase), WNV replicon expressing Vero cells. Conditions: for WNV replicon inhibition (FIG. 1): 25 μM final concentration, 24 hours, Vero cells; for EC50: West Nile virus, Vero, 24 h. It is filed as cell-based, West Nile virus (WNV). The procedure: as §1, §3
Specifically, the cells were prepared as above and the concentration of the compounds were varied (see Table 2). Renilla luciferase activity was measured as described above 24 hours after the addition of the compounds.

Data set [4] can be described thus: Cytotoxicity assay (MTT), naïve Vero cells. It is filed as cell-based. Conditions: African green monkey, 18 hours incubation. The protocol:
as §1, §2

In general, CC50 refers to the concentration at which the toxic effect on the cells reaches its halfway point. Broadly, the EC50 is the concentration at which the effect is half-maximal. Regarding `Oc1c(CN2CCOCC2)cc(Cl)c2cccnc12` [Compound 34], the CC50 at 18 h was 170 µM in data set [1] and 355 µM in data set [4]. In data set [2], the “DENV2 BHK replicon inhibition (FIG. 2)” value is reported as “inhibitory”. Further, the EC50 in data set [2] was 35 µM; in data set [3], 14.3 µM. For the same compound, in data set [3], the “WNV replicon inhibition (FIG. 1)” value is given as “inhibitory”.

For the compound `CCN(CC)Cc1cc(Cl)c2cccnc2c1O` [Compound 35], the results for the CC50 at 18 h in data set [1] and in data set [4] were 70.1 µM and 60.9 µM, respectively. For the same compound, the “DENV2 BHK replicon inhibition (FIG. 2)” value in data set [2] is on record as “inhibitory”. For the same compound, the EC50 in data set [2] was determined as 2.35 µM; in data set [3], 3.38 µM. The “WNV replicon inhibition (FIG. 1)” value in data set [3] was “inhibitory”.

Turning to `Oc1c(CN2CCOCC2)cc(Cl)c2c1NCCC2` [Compound 36], the CC50 at 18 h in data set [1] came out at 220 µM. Moreover, in data set [2], the “DENV2 BHK replicon inhibition (FIG. 2)” value is “inhibitory” and the EC50 is 63.1 µM.
